Measurements published in patent publication USRE47689E1, “Compounds for treating spinal muscular atrophy” (PTC Therapeutics, Inc., priority 2011, dated 2019).

Tests used:
Smn protein = Smn protein assay in cultured cells (SMN HTRF); type: cell-based, human; details: 48 hours; for EC1.5x (concentration giving 1.5-fold Smn protein increase): SMA Type 1 patient fibroblast cells (GM03813), 7-point concentration curve, SMN HTRF, concentration producing 1.5 times Smn protein vs DMSO vehicle control, read-out: EC1.5x for Smn protein expression; for maximum fold (Fold) increase of Smn protein: SMA patient fibroblast cells, 7-point concentration data, fold increase relative to vehicle control (SMN HTRF)
How it was run: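 Smn in SMA fibroblast lysates, measured by anti-SMN HTRF after 48 h compound exposure; EC1.5x from fold change over vehicle.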

[1] = tested on: SMN2 minigene (full length SMN2 minigene mRNA containing SMN2 exon 7); assay: SMN2 minigene mRNA splicing RT-qPCR assay in cultured cells; type: cell-based, human; details: Homo sapiens, HEK293-H; HEK293H cells stably transfected with SMN2-A minigene; 24 hours; 7-point concentration curve; 1.5-fold relative to vehicle-treated cells; read-out: EC1.5x for production of full length SMN2 mRNA
How it was run: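 Lysates → one-step RT-qPCR, minigene-specific primers (0.4 μM final) + GAPDH multiplex, 40 cycles. FL/GAPDH vs DMSO; EC1.5x, star-binned.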

| SMILES | EC1.5x (concentration giving 1.5-fold Smn protein increase) (Smn protein) [nM] | maximum fold (Fold) increase of Smn protein (Smn protein) | EC (1.5-fold) [1] [µM] | melting point [°C] |
| --- | --- | --- | --- | --- |
| Cc1cc(C)c2nc(-c3cc4ccc(N5CCN[C@@H](C)C5)cc4oc3=O)cn2c1 [Compound 425, 3-(6,8-dimethylimidazo[1,2-a]pyridin-2-yl)-7-[(3S)-3-methylpiperazin-1-yl]-2H-chromen-2-one] | 1000 to 3000 | *** (fold increase between >1.35 and ≤1.5) | 0.1 to 0.3 | 221 to 226 |
| C[C@@H]1CN(c2ccc3cc(-c4cn(-c5ccccc5)cn4)c(=O)oc3c2)C[C@H](C)N1 [Cpd 452, 7-[(3R,5S)-3,5-dimethylpiperazin-1-yl]-3-(1-phenyl-1H-imidazol-4-yl)-2H-chromen-2-one] |  | * (maximum fold increase of ≤1.2) | 3 to 30 | 260 to 264 |
| CCN1CCC[C@@H]2CN(c3ccc4cc(-c5cn6cc(C)nc(C)c6n5)c(=O)oc4c3)C[C@@H]21 [Compound 786, 3-(6,8-dimethylimidazo[1,2-a]pyrazin-2-yl)-7-[(4aR,7aR)-1-ethyloctahydro-6H-pyrrolo[3,4-b]pyridin-6-yl]-2H-chromen-2-one] | < 300 | **** (fold increase between >1.5 and ≤1.65) | < 0.1 | 215 to 221 |
| Cc1cn2cc(-c3cc4ccc(OCCNC(C)(C)CO)cc4oc3=O)nc2c(C)n1 [Compound 955, 3-(6,8-dimethylimidazo[1,2-a]pyrazin-2-yl)-7-{2-[(1-hydroxy-2-methylpropan-2-yl)amino]ethoxy}-2H-chromen-2-one] |  | *** (fold increase between >1.35 and ≤1.5) | 0.1 to 0.3 | 187 to 191 |
| Cc1cn2cc(-c3cc4ccc(N5CCC6(CCNC6)C5)cc4oc3=O)nc2c(C)n1 (stereo not shown) [Compound 945, 7-(2,7-diazaspiro[4.4]non-2-yl)-3-(6,8-dimethylimidazo[1,2-a]pyrazin-2-yl)-2H-chromen-2-one] | < 300 | ***** (fold increase >1.65) | < 0.1 | 190 to 200 |
| CN1CCN(c2ccc3cc(-c4cn5cc(F)cc(F)c5n4)c(=O)oc3c2)CC1 [Compound 522, 3-(6,8-difluoroimidazo[1,2-a]pyridin-2-yl)-7-(4-methylpiperazin-1-yl)-2H-chromen-2-one] |  | * (maximum fold increase of ≤1.2) | 0.3 to 1 | 232 to 238 |
| Cc1cc(F)c2nc(-c3cc4ccc(N5CCNC6(CCC6)C5)cc4oc3=O)cn2c1 [Compound 598, 7-(5,8-diazaspiro[3.5]non-8-yl)-3-(8-fluoro-6-methylimidazo[1,2-a]pyridin-2-yl)-2H-chromen-2-one] |  | *** (fold increase between >1.35 and ≤1.5) | 0.1 to 0.3 | 244 to 254 |
| CCN1CCCN(c2ccc3cc(-c4cc5c(C)nc(C)cn5c4)c(=O)oc3c2)CC1 [Compound 671, 3-(1,3-dimethylpyrrolo[1,2-a]pyrazin-7-yl)-7-(4-ethyl-1,4-diazepan-1-yl)-2H-chromen-2-one] | < 300 | ***** (fold increase >1.65) | < 0.1 | 166 to 169 |
| Cc1cccn2cc(-c3cc4ccc(N5C[C@@H](C)N[C@@H](C)C5)cc4oc3=O)nc12 [Compound 136, 7-[(3R,5S)-3,5-dimethylpiperazin-1-yl]-3-(8-methylimidazo[1,2-a]pyridin-2-yl)-2H-chromen-2-one] |  | ** (fold increase between >1.2 and ≤1.35) | 1 to 3 | 243 to 246 |
| Cc1ccc2nc(-c3cc4ccc(N5C[C@@H](C)N[C@@H](C)C5)cc4oc3=O)cn2n1 [Cpd 617, 7-[(3R,5S)-3,5-dimethylpiperazin-1-yl]-3-(6-methylimidazo[1,2-b]pyridazin-2-yl)-2H-chromen-2-one] |  | *** (fold increase between >1.35 and ≤1.5) | < 0.1 | 225 to 227 |
| COc1ccc(-c2cc3ccc(N4CCN[C@H](C)C4)cc3oc2=O)cc1OC [Compound 382, 3-(3,4-dimethoxyphenyl)-7-[(3R)-3-methylpiperazin-1-yl]-2H-chromen-2-one] |  | * (maximum fold increase of ≤1.2) | 1 to 3 | 143 to 145 |
| Cc1ccc2nc(-c3cc4ccc(N5CCCNCC5)cc4oc3=O)cn2n1 [Compound 631, 7-(1,4-diazepan-1-yl)-3-(6-methylimidazo[1,2-b]pyridazin-2-yl)-2H-chromen-2-one] |  | * (maximum fold increase of ≤1.2) | 0.3 to 1 | 252 to 255 |
| C[C@@H]1CN(c2ccc3cc(-c4cn(-c5ccccn5)cn4)c(=O)oc3c2)C[C@H](C)N1 [Cpd 433, 7-[(3R,5S)-3,5-dimethylpiperazin-1-yl]-3-[1-(pyridin-2-yl)-1H-imidazol-4-yl]-2H-chromen-2-one] |  | * (maximum fold increase of ≤1.2) | 3 to 30 | 201 to 206 |
| Cc1cccn2cc(-c3cc4c(F)cc(N5CCN(C)CC5)cc4oc3=O)nc12 [Compound 423, 5-fluoro-3-(8-methylimidazo[1,2-a]pyridin-2-yl)-7-(4-methylpiperazin-1-yl)-2H-chromen-2-one] |  | * (maximum fold increase of ≤1.2) | 1 to 3 | 232 to 237 |
| Cc1cn2cc(-c3cc4ccc(N5C[C@@H]6CN(C(C)C)C[C@@H]6C5)cc4oc3=O)nc2c(C)n1 [Compound 743, 3-(6,8-dimethylimidazo[1,2-a]pyrazin-2-yl)-7-[(3aR,6aS)-5-(propan-2-yl)hexahydropyrrolo[3,4-c]pyrrol-2(1H)-yl]-2H-chromen-2-one] | < 300 | ***** (fold increase >1.65) | < 0.1 | 249 to 258 |
| Cc1ccn2nc(-c3cc4ccc(N5CCCNCC5)cc4oc3=O)cc2c1 [Compound 309, 7-(1,4-diazepan-1-yl)-3-(5-methylpyrazolo[1,5-a]pyridin-2-yl)-2H-chromen-2-one] |  | ** (fold increase between >1.2 and ≤1.35) | 0.3 to 1 | 203 to 206 |
| Cc1cn2cc(-c3cc4ccc(N5CCCN(C)CC5)cc4oc3=O)ccc2n1 [Compound 653, 7-(4-methyl-1,4-diazepan-1-yl)-3-(2-methylimidazo[1,2-a]pyridin-6-yl)-2H-chromen-2-one] |  | *** (fold increase between >1.35 and ≤1.5) | 0.1 to 0.3 | 175 to 178 |
| Cc1cc(F)c2nc(-c3cc4ccc(N5CCN6CCC[C@@H]6C5)cc4oc3=O)cn2c1 [Compound 611, 3-(8-fluoro-6-methylimidazo[1,2-a]pyridin-2-yl)-7-[(8aR)-hexahydropyrrolo[1,2-a]pyrazin-2(1H)-yl]-2H-chromen-2-one] | 1000 to 3000 | **** (fold increase between >1.5 and ≤1.65) | 0.3 to 1 | 296 to 306 |
| Cc1cn2cc(-c3cc4ccc(N5CCN(C6COC6)CC5)cc4oc3=O)nc2cn1 [Compound 839, 3-(6-methylimidazo[1,2-a]pyrazin-2-yl)-7-[4-(oxetan-3-yl)piperazin-1-yl]-2H-chromen-2-one] | 300 to 1000 | **** (fold increase between >1.5 and ≤1.65) | 0.1 to 0.3 | 273 to 276 |
| Cc1cccc(Nc2cc3ccc(N4CCNCC4)cc3oc2=O)n1 [Compound 64, 3-[(6-methylpyridin-2-yl)amino]-7-(piperazin-1-yl)-2H-chromen-2-one] |  | * (maximum fold increase of ≤1.2) | 1 to 3 | 135 to 137 |
| Cc1cn2cc(-c3cc4ccc(N5C[C@@H]6CCCN[C@@H]6C5)cc4oc3=O)nc2c(C)n1 [Compound 794, 3-(6,8-dimethylimidazo[1,2-a]pyrazin-2-yl)-7-[(4aS,7aS)-octahydro-6H-pyrrolo[3,4-b]pyridin-6-yl]-2H-chromen-2-one] | < 300 | **** (fold increase between >1.5 and ≤1.65) | < 0.1 | 246 to 253 |
| Cc1ccn2cc(-c3cc4ccc(N5CCN(C)CC5)cc4oc3=O)nc2c1 [Compound 134, 3-(7-methylimidazo[1,2-a]pyridin-2-yl)-7-(4-methylpiperazin-1-yl)-2H-chromen-2-one] | 1000 to 3000 | *** (fold increase between >1.35 and ≤1.5) | 0.3 to 1 | 252 to 262 |
| Cc1cn2cc(-c3cc4ccc(N5CCCN(C)CC5)cc4oc3=O)cnc2n1 [Compound 662, 7-(4-methyl-1,4-diazepan-1-yl)-3-(2-methylimidazo[1,2-a]pyrimidin-6-yl)-2H-chromen-2-one] | 1000 to 3000 | *** (fold increase between >1.35 and ≤1.5) | < 0.1 | 286 to 289 |
